The record followed here is patent US20260184706A1, “PHENYLSULFONAMIDE DERIVATIVES, PREPARATION METHOD THEREFOR, AND PHARMACEUTICAL COMPOSITION FOR PREVENTION OR TREATMENT OF CANCER CONTAINING SAME AS ACTIVE INGREDIENT” (Korea Research Institute of Chemical Technology, priority 2022, published 2026).

Assay [1] has as its target T1, recombinant human PERK protein (Homo sapiens, UniProt Q9NZJ5).
T1 sequence (Q9NZJ5 30-1116): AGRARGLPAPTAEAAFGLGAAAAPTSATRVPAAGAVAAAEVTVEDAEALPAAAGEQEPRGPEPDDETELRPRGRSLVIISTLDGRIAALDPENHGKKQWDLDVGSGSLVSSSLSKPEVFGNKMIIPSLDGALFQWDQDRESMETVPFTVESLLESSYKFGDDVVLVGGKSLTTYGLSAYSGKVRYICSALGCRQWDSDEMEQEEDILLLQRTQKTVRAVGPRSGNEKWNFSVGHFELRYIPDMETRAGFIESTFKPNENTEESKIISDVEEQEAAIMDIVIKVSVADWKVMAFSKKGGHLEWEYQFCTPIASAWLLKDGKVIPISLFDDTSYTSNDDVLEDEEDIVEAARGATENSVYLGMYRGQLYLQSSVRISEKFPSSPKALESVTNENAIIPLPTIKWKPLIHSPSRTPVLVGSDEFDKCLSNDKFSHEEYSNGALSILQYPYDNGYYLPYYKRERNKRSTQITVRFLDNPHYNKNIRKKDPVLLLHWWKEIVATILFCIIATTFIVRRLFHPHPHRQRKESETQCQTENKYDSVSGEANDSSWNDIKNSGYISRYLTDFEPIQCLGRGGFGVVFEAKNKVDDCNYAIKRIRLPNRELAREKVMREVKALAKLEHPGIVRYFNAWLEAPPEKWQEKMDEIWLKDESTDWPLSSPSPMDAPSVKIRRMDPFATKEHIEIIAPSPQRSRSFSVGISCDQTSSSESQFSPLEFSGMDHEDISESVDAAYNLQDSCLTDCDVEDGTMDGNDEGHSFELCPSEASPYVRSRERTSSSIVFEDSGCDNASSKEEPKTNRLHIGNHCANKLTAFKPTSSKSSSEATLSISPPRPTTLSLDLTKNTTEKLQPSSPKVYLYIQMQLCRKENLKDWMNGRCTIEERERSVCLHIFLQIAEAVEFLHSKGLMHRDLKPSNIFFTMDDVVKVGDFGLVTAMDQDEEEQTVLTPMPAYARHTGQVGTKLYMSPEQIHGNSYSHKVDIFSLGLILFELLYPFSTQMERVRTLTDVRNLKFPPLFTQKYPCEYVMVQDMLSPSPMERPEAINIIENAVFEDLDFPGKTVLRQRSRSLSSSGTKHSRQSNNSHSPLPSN
Briefly: PKR-like endoplasmic reticulum kinase (PERK) inhibitory capacity, 33P-ATP filter assay. Format: biochemical. To be noted: 15 uM [gamma-33P-ATP], 40 minutes, room temperature. As to the method:
<Experimental Example 1> Evaluation of PKR-Like Endoplasmic Reticulum Kinase (PERK) Inhibitory Capacity
A recombinant human PERK protein was mixed with the compound in a reaction solution (8 mM MOPS pH 7.0, 0.2 mM EDTA, 300 uM RSRSRSRSRSRSRSR, 10 mM Magnesium acetate, 15 uM [gamma-33P-ATP]) and reacted at room temperature for 40 minutes. Then, the reaction was terminated by adding phosphoric acid (0.5%) to the reaction mixture, and 10 ul of the reaction solution was dropped onto a P30 filter. The filter was washed four times in a 0.425% phosphoric acid solution for 4 minutes, then washed once more in methanol, dried, and the PERK activity was measured by scintillation counting. […] The compound was diluted by 1/3 from the highest concentration of 1 uM and treated with a total of 9 concentrations to evaluate the degree of inhibition.

Assay [2] has as its target recombinant human GCN2 protein (Homo sapiens, UniProt Q9P2K8). Nature of the assay: General control nonderepressible 2 (GCN2) inhibitory capacity, 33P-ATP filter assay. Format: biochemical. To be noted: recombinant human GCN2, 70 uM [gamma-33P-ATP], 40 minutes, room temperature. As to the method:
<Experimental Example 2> Evaluation of General Control Nonderepressible 2 (GCN2) Inhibitory Capacity
A recombinant human GCN2 protein was mixed with the compound in a reaction solution (20 mM Tris/HCl pH8.5, 0.2 mM EDTA, 0.1% Tween, 100 mM NaCl, 300 μM RSRSRSRSRSRSRSR, 10 mM Magnesium acetate, 70 uM [gamma-33P-ATP]) and reacted at room temperature for 40 minutes. Then, the reaction was terminated by adding phosphoric acid (0.5%) to the reaction mixture, and 10 ul of the reaction solution was dropped onto a P30 filter. The filter was washed four times in a 0.425% phosphoric acid solution for 4 minutes, then washed once more in methanol, dried, and the GCN2 activity was measured by scintillation counting. […] The compound was diluted by 1/3 from the highest concentration of 1 uM and treated with a total of 9 concentrations to evaluate the degree of inhibition.

The structures appear in SMILES notation.

Sequence of recombinant human GCN2 protein (Q9P2K8 whole entry): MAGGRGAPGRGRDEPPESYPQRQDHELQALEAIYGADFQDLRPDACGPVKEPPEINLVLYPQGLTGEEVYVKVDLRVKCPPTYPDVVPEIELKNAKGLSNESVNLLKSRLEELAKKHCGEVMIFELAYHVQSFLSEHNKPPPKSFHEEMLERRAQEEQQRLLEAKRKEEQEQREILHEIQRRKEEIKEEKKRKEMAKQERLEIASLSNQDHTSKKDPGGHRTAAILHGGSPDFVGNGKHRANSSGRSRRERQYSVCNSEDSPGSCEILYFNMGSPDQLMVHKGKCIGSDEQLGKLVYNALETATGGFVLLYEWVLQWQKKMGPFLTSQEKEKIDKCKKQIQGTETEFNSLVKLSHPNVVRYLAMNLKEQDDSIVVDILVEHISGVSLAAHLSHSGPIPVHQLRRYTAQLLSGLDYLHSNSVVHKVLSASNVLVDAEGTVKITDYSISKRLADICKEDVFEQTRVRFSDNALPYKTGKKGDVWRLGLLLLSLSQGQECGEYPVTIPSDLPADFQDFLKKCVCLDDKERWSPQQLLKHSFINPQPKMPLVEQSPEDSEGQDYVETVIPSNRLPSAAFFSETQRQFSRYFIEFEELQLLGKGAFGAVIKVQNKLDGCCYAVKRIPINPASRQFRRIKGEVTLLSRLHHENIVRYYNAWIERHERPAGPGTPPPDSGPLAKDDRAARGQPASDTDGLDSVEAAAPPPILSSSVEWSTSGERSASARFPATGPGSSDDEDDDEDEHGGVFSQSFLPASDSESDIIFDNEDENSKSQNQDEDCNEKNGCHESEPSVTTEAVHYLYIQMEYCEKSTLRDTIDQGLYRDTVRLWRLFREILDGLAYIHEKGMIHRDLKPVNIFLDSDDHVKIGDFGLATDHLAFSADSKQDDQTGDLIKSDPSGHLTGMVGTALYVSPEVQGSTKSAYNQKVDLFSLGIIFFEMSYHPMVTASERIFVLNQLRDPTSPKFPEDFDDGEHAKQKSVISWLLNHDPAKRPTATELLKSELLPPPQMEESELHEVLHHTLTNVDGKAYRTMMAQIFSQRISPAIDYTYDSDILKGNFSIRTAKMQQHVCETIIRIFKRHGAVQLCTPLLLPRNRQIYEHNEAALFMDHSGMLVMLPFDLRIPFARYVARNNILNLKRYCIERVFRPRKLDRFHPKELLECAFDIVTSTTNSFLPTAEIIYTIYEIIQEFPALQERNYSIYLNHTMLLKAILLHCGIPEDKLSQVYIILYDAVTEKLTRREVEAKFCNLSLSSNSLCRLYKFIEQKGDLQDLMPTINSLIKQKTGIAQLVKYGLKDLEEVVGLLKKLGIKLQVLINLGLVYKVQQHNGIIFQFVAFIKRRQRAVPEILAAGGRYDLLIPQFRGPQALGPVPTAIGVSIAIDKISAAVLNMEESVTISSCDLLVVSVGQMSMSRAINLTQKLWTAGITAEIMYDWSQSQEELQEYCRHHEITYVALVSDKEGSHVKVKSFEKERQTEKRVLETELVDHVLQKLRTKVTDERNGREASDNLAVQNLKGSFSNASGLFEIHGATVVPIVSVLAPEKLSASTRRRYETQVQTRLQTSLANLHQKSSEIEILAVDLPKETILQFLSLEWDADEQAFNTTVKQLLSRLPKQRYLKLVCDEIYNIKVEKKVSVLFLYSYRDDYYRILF

In the case of `Cc1n[nH]c(C)c1S(=O)(=O)Nc1ccc(F)c(-c2cc3cnc(N)nc3n(C)c2=O)c1F` [Example 5, N-(3-(2-amino-8-methyl-7-oxo-7,8-dihydropyrido[2,3-d]pyrimidin-6-yl)-2,4-difluorophenyl)-3,5-dimethyl-1H-pyrazole-4-sulfonamide], the half-inhibitory concentration (IC50) in assay [1] and in assay [2] was above 1000 nM in each case.
As to `Cc1nn(C(F)F)c(C)c1S(=O)(=O)Nc1ccc(F)c(-c2cc3cnc(N)nc3n(C)c2=O)c1F` [Example 8, N-(3-(2-amino-8-methyl-7-oxo-7,8-dihydropyrido[2,3-d]pyrimidin-6-yl)-2,4-difluorophenyl)-1-(difluoromethyl)-3,5-dimethyl-1H-pyrazole-4-sulfonamide], the IC50 in assay [1] and in assay [2] was above 1000 nM throughout.
On to `Cn1c(=O)c(-c2c(F)ccc(NS(=O)(=O)c3ccc(Cl)s3)c2F)cc2cnc(N)nc21` [Example 19, N-(3-(2-amino-8-methyl-7-oxo-7,8-dihydropyrido[2,3-d]pyrimidin-6-yl)-2,4-difluorophenyl)-5-chlorothiophene-2-sulfonamide], for which the IC50 in assay [1] and in assay [2] was below 100 nM throughout.
In the case of `Cn1ccc2c(S(=O)(=O)Nc3ccc(F)c(-c4cc5cnc(N)nc5n(C)c4=O)c3F)cccc21` [Example 7, N-(3-(2-amino-8-methyl-7-oxo-7,8-dihydropyrido[2,3-d]pyrimidin-6-yl)-2,4-difluorophenyl)-1-methyl-1H-indole-4-sulfonamide], the IC50 (as a rule, the concentration at which inhibition is half-maximal) in assay [1] is below 100 nM; in assay [2], 100 to 300 nM.
Consider `Cc1c(S(=O)(=O)Nc2ccc(F)c(-c3cc4cnc(N)nc4n(C)c3=O)c2F)c(Cl)nn1C` [Example 9, N-(3-(2-amino-8-methyl-7-oxo-7,8-dihydropyrido[2,3-d]pyrimidin-6-yl)-2,4-difluorophenyl)-3-chloro-1,5-dimethyl-1H-pyrazole-4-sulfonamide], for which the IC50 was above 1000 nM in assay [1] and 300 to 1000 nM in assay [2].
Consider `Cc1c(S(=O)(=O)Nc2ccc(F)c(-c3cc4cnc(N)nc4n(C)c3=O)c2F)c(CO)nn1C` [Example 10, N-(3-(2-amino-8-methyl-7-oxo-7,8-dihydropyrido[2,3-d]pyrimidin-6-yl)-2,4-difluorophenyl)-3-(hydroxymethyl)-1,5-dimethyl-1H-pyrazole-4-sulfonamide], for which the half-inhibitory concentration (IC50) in assay [1] and in assay [2] was above 1000 nM throughout.
Take `Cc1noc(C)c1S(=O)(=O)Nc1ccc(F)c(-c2cc3cnc(N)nc3n(C)c2=O)c1F` [Example 13, N-(3-(2-amino-8-methyl-7-oxo-7,8-dihydropyrido[2,3-d]pyrimidin-6-yl)-2,4-difluorophenyl)-3,5-dimethylisoxazole-4-sulfonamide]: the half-inhibitory concentration (IC50) in assay [1] was in the range of 300 to 1000 nM; in assay [2] it was 100 to 300 nM.
Take `Cn1c(=O)c(-c2c(F)ccc(NS(=O)(=O)c3cc(F)ccc3F)c2F)cc2cnc(N)nc21` [Example 12, N-(3-(2-amino-8-methyl-7-oxo-7,8-dihydropyrido[2,3-d]pyrimidin-6-yl)-2,4-difluorophenyl)-2,5-difluorobenzene sulfonamide]: the IC50 in assay [1] was below 100 nM; in assay [2] it was 100 to 300 nM.
Consider `CNc1ncc2cc(-c3c(F)ccc(NS(=O)(=O)c4cc(Cl)ccc4Cl)c3F)c(=O)n(C)c2n1` [Example 20, 2,5-dichloro-N-(2,4-difluoro-3-(8-methyl-2-(methylamino)-7-oxo-7,8-dihydropyrido[2,3-d]pyrimidin-6-yl)phenyl)benzenesulfonamide], for which the IC50 is above 1000 nM in assay [1] and 100 to 300 nM in assay [2].
As for `Cn1cc(S(=O)(=O)Nc2ccc(F)c(-c3cc4cnc(N)nc4n(C)c3=O)c2F)c(C(F)(F)F)n1` [Example 17, N-(3-(2-amino-8-methyl-7-oxo-7,8-dihydropyrido[2,3-d]pyrimidin-6-yl)-2,4-difluorophenyl)-1-methyl-3-(trifluoromethyl)-1H-pyrazole-4-sulfonamide], the half-inhibitory concentration (IC50) fell in the range of 100 to 300 nM in assay [1] and 300 to 1000 nM in assay [2].
